Data taken from patent publication US9469804B2, “Foaming composition with wettability modifying and corrosion inhibitory properties for high temperature and ultra-high salinity” (INSTITUTO MEXICANO DEL PETROLEO, priority 2012, dated 2016).

Key:
[1] = Phase stability evaluation in brines with ultra-high salinity (turbidity); type: physicochemical; conditions: 0.2% by weight, room temperature, pass limit 30 NTU
Experimental: A phase stability study was carried out for the supramolecular complexes object of the present invention, described in Examples 19, 20 and 21 and whose basic structural formula is indicated in (36).
All the products were assessed at concentration of 0.2% by weight, dissolved in different waters with high salinity and concentrations of divalent ions, through the measurement of turbidity in NTU (Nephelometric Turbidity Units). This value indicates how turbid or clear a solution/chemical product is and the higher the value, the more turbid the solution is.
The measurement is based on applying the nephelometric technique by using a photometer. The standard method is based on the comparison of the amount of light dispersed by the colloidal particles present in a sample of water with the intensity of the light emerging across the same sample.
It is worth mentioning that in order to pass this test, a value 30 NTU should not be exceeded.

[2] = Foaming test at atmospheric pressure (foam stability); type: physicochemical; conditions: brine 1, 70°C, 0.2% by weight, nitrogen

Substance: coco-amido-propyl-hydroxysultaine [Coco amido-propyl hydroxysultaine]
- TURBIDITY ([1]; BRINE 1 (salinity as NaCl 32803.9, hardness 6420 mg/L)): 1.09 NTU
- TURBIDITY ([1]; BRINE 2 (salinity as NaCl 152974.9, hardness 35200 mg/L)): 1.68 NTU
- TURBIDITY ([1]; BRINE 3 (salinity as NaCl 253859.1, hardness 87700 mg/L)): 3.9 NTU
- time in which the minimum foam stability of 30% is reached [2]: 60 min
